# Like-named read-outs stand apart in the source and are kept apart here.
# How the values were obtained:
# MRSA = experiment: Broth microdilution MIC, Example 7 (NCL812 and analogues); format: cell-based, Staphylococcus aureus; details: for activity against MRSA among analogues: MIC testing, two MRSA strains; for MIC: Staphylococcus aureus, read-out: MRSA; for MIC / MRSA: MRSA, bioassay ranking
# Outline: (§1)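 MICs in μg/ml were read as growth inhibition by eye, checked at 600 nm absorbance against drug-free wells, following CLSI broth microdilution. Strains: two MRSA, two VRE; duplicates, repeated once more when results diverged beyond one dilution step.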
# VRE = experiment: as above; format: cell-based, Enterococcus spp.; details: for MIC: Enterococcus, read-out: VRE; for MIC / VRE: VRE, bioassay ranking; for activity against VRE among analogues: MIC testing, two VRE strains
# Outline: as §1
# [1] = Bioassay ranking of the analogues tested; details: M + R (MRSA and VRE combined)
# [2] = test system: S. aureus isolates (HA-MRSA, CA-MRSA, methicillin-susceptible staphylococci); experiment: Kirby-Bauer disc diffusion resistotyping, Example 4; format: cell-based, Staphylococcus aureus
# Protocol: Antibiotic-susceptibility profiling of the isolate collection was undertaken using Kirby-Bauer disc diffusion, as recommended by the Clinical and Laboratory Standards Institute (CLSI) on Mueller-Hinton agar. Isolates were grown overnight on SBA at 37° C. Colonies were suspended in physiological saline. Turbidity was adjusted to a 0.5 McFarland standard and suspensions were spread over the medium. Antibiotic discs according to Table 9 below were transferred onto the inoculated medium and analysed after 24 h incubation at 37° C.
# S. pneumoniae isolates = experiment: Disk diffusion susceptibility (CLSI/EUCAST), Example 5; format: cell-based, Streptococcus pneumoniae
# Protocol: Isolate susceptibility to 12 different antimicrobials (Table 16) was determined by CLSI and European Committee on Antimicrobial Susceptibility Testing (EUCAST) methods. Antimicrobials were selected based upon the CLSI and EUCAST guidelines. Standardised bacterial suspensions were spread onto MHSBA using a sterile cotton swab. Bacterial suspensions from of Streptococcus pneumoniae were standardised to an OD6O0 between 0.08 and 0.1 using a spectrophotometer and then diluted 1:20. Bacterial colonies were taken from an O/N horse blood agar plate. To ensure the purity of the 1:20 bacterial suspension, 50 μL was spread plated onto horse blood agar and incubated O/N at 37° C. with 5% CO2. The CFU was calculated and compared to the initial plate counts. Antibiotic disks (Purchased from Sigma Aldrich) were placed using a disk dispenser (Purchased from Oxoid) according to CLSI standards. MHSBA plates were incubated for 16 h-24 h at 37° C. in 5% CO2. Zones of complete inhibition were measured in triplicate to the nearest millimeter using a ruler on natural light-reflected growth, and the mode was represented as the diameter for each isolate. Pneumococcal isolates were categorised as sensitive, intermediate (I) or resistant (R) by CLSI standards and quality control (QC) ranges (Table 16).
# [3] = test system: Staphylococcus pseudintermedius isolates (MSSP and MRSP); experiment: Disk diffusion and Epsilometer susceptibility testing, Example 6; format: cell-based; details: for MIC: Staphylococcus pseudintermedius
smiles,measurement,setting,value
CC/C(=N\NC(=N)N/N=C(\CC)c1ccc(Cl)cc1O)c1ccc(Cl)cc1O [NCL158],activity against MRSA among analogues,MRSA,greatest activity
same,MIC,MRSA,4 µg/mL
same,MIC,VRE,4 µg/mL
same,activity against VRE among analogues,VRE,greatest activity
same,M + R,[1],4 µg/mL
CC(=NNC(=N)NN=C(C)c1ccc(Cl)cc1O)c1ccc(Cl)cc1O.Cl [NCL173],activity against MRSA among analogues,MRSA,greatest activity
same,MRSA,MRSA,16 µg/mL
same,activity against VRE among analogues,VRE,greatest activity
same,VRE,VRE,18 µg/mL
same,M + R,[1],17 µg/mL
"Cl.N=C(NN=Cc1ccc(Cl)cc1N)NN=Cc1ccc(Cl)cc1N [NCL157, 2,2′-bis[(2-amino-4-chlorophenyl)methylene]carbonimidic Dihydrazide Hydrochloride]",activity against MRSA among analogues,MRSA,greatest activity
same,MIC,MRSA,2 µg/mL
same,MIC,VRE,2.5 µg/mL
same,activity against VRE among analogues,VRE,greatest activity
same,M + R,[1],2.25 µg/mL
"Nc1nc(N/N=C/c2ccc(Cl)cc2)cc(N/N=C/c2ccc(Cl)cc2)n1 [NCL179, 4,6-bis(2-((E)-4-chlorobenzylidene)hydrazinyl)pyrimidin-2-amine]",activity against MRSA among analogues,MRSA,greatest activity
same,MIC,MRSA,2 µg/mL
same,MIC,VRE,4 µg/mL
same,activity against VRE among analogues,VRE,greatest activity
same,M + R,[1],3 µg/mL
Cc1onc(-c2ccccc2)c1C(=O)N[C@@H]1C(=O)N2[C@@H]1SC(C)(C)[C@@H]2C(=O)O [Oxacillin],isolates resistant (Kirby-Bauer disc diffusion),[2]; CA-MRSA (n = 10),10.00%
same,isolates resistant (Kirby-Bauer disc diffusion),[2]; HA-MRSA (n = 10),80.00%
same,isolates resistant (Kirby-Bauer disc diffusion),[2]; Methicillin-susceptible staphylococci (n = 10),0.00%
same,"resistant isolates, number (percentage)","[2]; Unclassified (n = 2), Overall",2 (100%)
same,Total isolates resistant (Kirby-Bauer disc diffusion),[2]; all isolates (n = 30),30.00%
same,"resistant isolates, number (percentage)","[2]; mec gene complex A (n = 4), Overall",4 (100%)
same,"resistant isolates, number (percentage)","[2]; mec gene complex A (n = 4), SCCmec type II",3 (100%)
same,"resistant isolates, number (percentage)","[2]; mec gene complex A (n = 4), SCCmec type III",1 (100%)
same,"resistant isolates, number (percentage)","[2]; mec gene complex B (n = 10), Overall",2 (20%)
same,"resistant isolates, number (percentage)","[2]; mec gene complex B (n = 10), SCCmec type I",1 (50%)
same,"resistant isolates, number (percentage)","[2]; mec gene complex B (n = 10), SCCmec type IV",1 (12.5%)
same,"resistant isolates, number (percentage)","[2]; mec gene complex C2 (n = 4), Overall",1 (25%)
same,"resistant isolates, number (percentage)","[2]; mec gene complex C2 (n = 4), SCCmec type V",1 (25%)
same,disk diffusion zone diameter,S. pneumoniae isolates; A66.1,28 mm
same,disk diffusion zone diameter,S. pneumoniae isolates; D39,26 mm
same,disk diffusion zone diameter,S. pneumoniae isolates; EF3030,18 mm
same,disk diffusion zone diameter,S. pneumoniae isolates; L82016,29 mm
same,disk diffusion zone diameter,S. pneumoniae isolates; P9,26 mm
same,disk diffusion zone diameter,S. pneumoniae isolates; P21,28 mm
same,disk diffusion zone diameter,S. pneumoniae isolates; TIGR4,26 mm
same,disk diffusion zone diameter,S. pneumoniae isolates; WCH16,30 mm
same,disk diffusion zone diameter,S. pneumoniae isolates; WCH43,26 mm
same,disk diffusion zone diameter,S. pneumoniae isolates; WCH46,27 mm
same,disk diffusion zone diameter,S. pneumoniae isolates; WCH57,32 mm
same,disk diffusion zone diameter,S. pneumoniae isolates; WCH77,28 mm
same,disk diffusion zone diameter,S. pneumoniae isolates; WCH86,34 mm
same,disk diffusion zone diameter,S. pneumoniae isolates; WCH89,29 mm
same,disk diffusion zone diameter,S. pneumoniae isolates; WCH92,25 mm
same,disk diffusion zone diameter,S. pneumoniae isolates; WCH137,29 mm
same,disk diffusion zone diameter,S. pneumoniae isolates; WCH158,28 mm
same,disk diffusion zone diameter,S. pneumoniae isolates; WCH184,11 mm
same,disk diffusion zone diameter,S. pneumoniae isolates; WCH211,25 mm
same,disk diffusion zone diameter,S. pneumoniae isolates; WU2,28 mm
same,"disc diffusion zone, all MRSP isolates resistant",[3]; 13 MRSP isolates,≤ 17 mm
same,MIC,"[3]; 13 MRSP isolates, read-out: E-test MIC, all MRSP isolates resistant",≥ 0.5 µg/mL
same,MIC,"[3]; isolate S1P1, read-out: Etest MIC",> 256 µg/mL
same,MIC,"[3]; isolate S2P2, read-out: Etest MIC",> 256 µg/mL
same,MIC,"[3]; isolate S3P3, read-out: Etest MIC",> 256 µg/mL
same,MIC,"[3]; isolate S4P4, read-out: Etest MIC",2 µg/mL
same,MIC,"[3]; isolate S5P5, read-out: Etest MIC",4 µg/mL
same,MIC,"[3]; isolate S6P6, read-out: Etest MIC",> 256 µg/mL
same,MIC,"[3]; isolate S7P7, read-out: Etest MIC",> 256 µg/mL
same,MIC,"[3]; isolate S8P8, read-out: Etest MIC",> 256 µg/mL
same,MIC,"[3]; isolate S9P9, read-out: Etest MIC",4 µg/mL
same,MIC,"[3]; isolate S10P10, read-out: Etest MIC",> 256 µg/mL
same,MIC,"[3]; isolate S11P11, read-out: Etest MIC",> 256 µg/mL
same,MIC,"[3]; isolate S12P12, read-out: Etest MIC",1.5 µg/mL
same,MIC,"[3]; isolate S13P13, read-out: Etest MIC",0.125 µg/mL
same,MIC,"[3]; isolate S14P14, read-out: Etest MIC",0.25 µg/mL
same,MIC,"[3]; isolate S15P15, read-out: Etest MIC",0.25 µg/mL
same,MIC,"[3]; isolate S16P16, read-out: Etest MIC",0.19 µg/mL
same,MIC,"[3]; isolate S17P17, read-out: Etest MIC",0.25 µg/mL
same,MIC,"[3]; isolate S18P18, read-out: Etest MIC",0.25 µg/mL
same,MIC,"[3]; isolate S19P19, read-out: Etest MIC",0.25 µg/mL
same,MIC,"[3]; isolate S20P20, read-out: Etest MIC",0.25 µg/mL
same,MIC,"[3]; isolate S21P21, read-out: Etest MIC",0.125 µg/mL
same,MIC,"[3]; isolate S22P22, read-out: Etest MIC",0.25 µg/mL
same,MIC,"[3]; isolate S23P23, read-out: Etest MIC",1.5 µg/mL
same,ZD,[3]; isolate S1P1,0 mm
same,"ZD, Adl",[3]; isolate S1P1,0 mm
same,ZD,[3]; isolate S2P2,0 mm
same,"ZD, Adl",[3]; isolate S2P2,0 mm
same,ZD,[3]; isolate S3P3,0 mm
same,"ZD, Adl",[3]; isolate S3P3,0 mm
same,ZD,[3]; isolate S4P4,0 mm
same,"ZD, Adl",[3]; isolate S4P4,0 mm
same,ZD,[3]; isolate S5P5,0 mm
same,"ZD, Adl",[3]; isolate S5P5,0 mm
same,ZD,[3]; isolate S6P6,0 mm
same,"ZD, Adl",[3]; isolate S6P6,0 mm
same,ZD,[3]; isolate S7P7,0 mm
same,"ZD, Adl",[3]; isolate S7P7,0 mm
same,ZD,[3]; isolate S8P8,0 mm
same,"ZD, Adl",[3]; isolate S8P8,0 mm
same,ZD,[3]; isolate S9P9,0 mm
same,"ZD, Adl",[3]; isolate S9P9,0 mm
same,ZD,[3]; isolate S10P10,0 mm
same,"ZD, Adl",[3]; isolate S10P10,0 mm
same,ZD,[3]; isolate S11P11,0 mm
same,"ZD, Adl",[3]; isolate S11P11,0 mm
same,ZD,[3]; isolate S12P12,13 mm
same,"ZD, Adl",[3]; isolate S12P12,16 mm
same,ZD,[3]; isolate S13P13,26 mm
same,"ZD, Adl",[3]; isolate S13P13,36 mm
same,ZD,[3]; isolate S14P14,22 mm
same,"ZD, Adl",[3]; isolate S14P14,29 mm
same,ZD,[3]; isolate S15P15,22 mm
same,"ZD, Adl",[3]; isolate S15P15,25 mm
same,ZD,[3]; isolate S16P16,26 mm
same,"ZD, Adl",[3]; isolate S16P16,34 mm
same,ZD,[3]; isolate S17P17,22 mm
same,"ZD, Adl",[3]; isolate S17P17,26 mm
same,ZD,[3]; isolate S18P18,22 mm
same,"ZD, Adl",[3]; isolate S18P18,30 mm
same,ZD,[3]; isolate S19P19,25 mm
same,"ZD, Adl",[3]; isolate S19P19,32 mm
same,ZD,[3]; isolate S20P20,23 mm
same,"ZD, Adl",[3]; isolate S20P20,30 mm
same,ZD,[3]; isolate S21P21,27 mm
same,"ZD, Adl",[3]; isolate S21P21,37 mm
same,ZD,[3]; isolate S22P22,21 mm
same,"ZD, Adl",[3]; isolate S22P22,26 mm
same,ZD,[3]; isolate S23P23,13 mm
same,"ZD, Adl",[3]; isolate S23P23,14 mm
CC(C)c1ccc(/C=N/NC(=N)N/N=C/c2ccc(C(C)C)cc2)cc1.Cl [NCL120],activity against MRSA among analogues,MRSA,greatest activity
same,MRSA,MRSA,7 µg/mL
same,activity against VRE among analogues,VRE,greatest activity
same,VRE,VRE,5 µg/mL
same,M + R,[1],6 µg/mL
Cl.N=C(NN=C(CO)c1ccc(Cl)cc1)NN=C(CO)c1ccc(Cl)cc1 [NCL177],activity against MRSA among analogues,MRSA,greatest activity
same,MRSA,MRSA,8 µg/mL
same,activity against VRE among analogues,VRE,greatest activity
same,VRE,VRE,6 µg/mL
same,M + R,[1],7 µg/mL
Cl.N=C(NN=Cc1ccc(F)c(F)c1)NN=Cc1ccc(F)c(F)c1 [NCL123],activity against MRSA among analogues,MRSA,greatest activity
same,MRSA,MRSA,15 µg/mL
same,activity against VRE among analogues,VRE,greatest activity
same,VRE,VRE,4 µg/mL
same,M + R,[1],9.5 µg/mL
CCC(=NNC(=N)NN=C(CC)c1ccc(Cl)cc1)c1ccc(Cl)cc1.Cl [NCL153],activity against MRSA among analogues,MRSA,greatest activity
same,MRSA,MRSA,24 µg/mL
same,activity against VRE among analogues,VRE,greatest activity
same,VRE,VRE,8 µg/mL
same,M + R,[1],16 µg/mL
CC(=NNC(=N)NN=C(C)c1ccccc1)c1ccccc1.Cl [NCL143],activity against MRSA among analogues,MRSA,greatest activity
same,MRSA,MRSA,16 µg/mL
same,activity against VRE among analogues,VRE,greatest activity
same,VRE,VRE,8 µg/mL
same,M + R,[1],12 µg/mL
CCCc1ccc(C=NNC(=N)NN=Cc2ccc(CCC)cc2)cc1.Cl [NCL121],activity against MRSA among analogues,MRSA,greatest activity
same,MRSA,MRSA,32 µg/mL
same,activity against VRE among analogues,VRE,greatest activity
same,VRE,VRE,28 µg/mL
same,M + R,[1],30 µg/mL
N=C(NN=Cc1ccc(Cl)cc1N)NN=Cc1ccc(Cl)cc1N [NCL169],activity against MRSA among analogues,MRSA,greatest activity
same,activity against VRE among analogues,VRE,greatest activity
same,VRE,VRE,32 µg/mL
same,M + R,[1],40 µg/mL
